Reference: patent publication US9788546B2, “Synergistic pesticidal compositions and related methods” (DOW AGROSCIENCES LLC, priority 2013, dated 2017)
Where two headings read alike, the source gives them in different places.

Key:
Format in all cases: in vivo
[1] = test system: brown stink bugs, Euschistus heros; assay: Field spray and mesh cage test with bifenthrin, average mortality at 1, 2, 4, and 7 days; conditions: 1, 2, 4, and 7 days after treatment
Protocol: Two emulsifying concentrate pesticidal compositions with a weight ratio of compound I to bifenthrin of 1:1 were prepared. The first comprising 0.0167 weight % of compound I and about 0.0167 weight % of bifenthrin and the second comprising 0.0333 weight % compound I and 0.0333 weight % bifenthrin. The compositions were diluted and applied to the field using a spray volume of […]. The application was done using a CO2 backpack sprayer with a solid cone nozzle TXVK-8 (ConeJet). Plants were allowed to air dry and then were placed in a mesh cage where different instar stink bugs were infested in two different trials (3rd and 4th nymphal stage, and adults). Average stink bug mortality was assessed at 1, 2, 4, and 7 days after application counting the number of dead insects and calculating the percent control based on the survivorship in the untreated treatment.
The average percent control of the pesticidal composition against brown stink bugs, Euschistus heros, was determined as the “Average Observed” action, and compared to the average of those obtained by using about 0.0167 weight %, 0.0333 weight %, and 0.0667 weight % of compound I alone, and the average of those obtained using about 0.0167 weight % and 0.0333 weight % of bifenthrin alone. The “Colby's Expected Action” was calculated using Colby's equation as discussed previously. […]

[2] = test system: brown stink bugs, Euschistus heros; assay: Field spray and mesh cage test with alpha-cypermethrin, average mortality at 1 and 3 days; conditions: 1 and 3 days after treatment
Protocol: Two emulsifying concentrate pesticidal compositions with a weight ratio of compound I to alpha-cypermethrin of 1:1 were prepared. The first comprising 0.0167 weight % of compound I and about 0.0167 weight % of alpha-cypermethrin and the second comprising 0.0333 weight % compound I and 0.0333 weight % alpha-cypermethrin. The compositions were diluted and applied to the field using a spray volume of […]. The application was done using a CO2 backpack sprayer with a solid cone nozzle TXVK-8 (ConeJet). Plants were allowed to air dry and then were placed in a mesh cage where different instar stink bugs were infested (3rd and 4th nymphal stage, and adults). Average stink bug mortality was assessed at 1 and 3 days after application counting the number of dead insects and calculating the percent control based on the survivorship in the untreated.
The average percent control of the pesticidal composition against brown stink bugs, Euschistus heros, was determined as the “Average Observed” action, and compared to the average of those obtained by using about 0.0167 weight %, 0.0333 weight %, and 0.0667 weight % of compound I alone, and the average of those obtained using about 0.0167 weight % and 0.0333 weight % of alpha-cypermethrin alone. The “Colby's Expected Action” was calculated using Colby's equation as discussed previously. […]

[3] = test system: Lygus bug, Lygus hesperus (Knight); assay: Treated string bean bioassay, four-day old nymphs; conditions: Compound II alone, 0.04 weight %
Protocol: String beans were treated with different active compounds for ten minutes. Three four-day old nymphs of Lygus bug, Lygus hesperus (Knight), were infested onto each bean sample.

[4] = test system: stink bugs (Edessa meditabunda, Euschistus heros, and Piezodorus guildinii); conditions: Compound II alone, field test
Protocol: […] Silwet L-77 at 0.1% V/V was used as an adjuvant in the tank mix, and the application was done using a CO2 backpack sprayer. Trial was conducted under a natural stink bug infestation. […] The stink bug population consisted on about 75% Edessa meditabunda, 20% of Euschistus heros, and 5% Piezodorus guildinii.
This was about 48% improvement over the Colby's expected action.

[5] = test system: Western flower thrips, Frankliniella occidentalis (Pergande); assay: Cotton leaf punch dip bioassay, mortality of nymphs; conditions: Compound II alone, 0.04 weight %; Example 5
Protocol: The active compounds were formulated in a 10% acetone solution with 0.025% non-ionic surfactant, TWEEN® 20. Cotton leaf punches were used for bioassays. Two cotton leaf punches were placed in each solution and left there for 10 minutes. Leaves were taken out of the solution, placed on a piece of filter paper in separated Petri dishes, and air dried. Each leaf disc was considered a repetition. Five nymph of Western flower thrips, Frankliniella occidentalis, were infested per repetition. The assessment of mortality was done three days after infestation. The percent control of the pesticidal composition Western flower thrips, Frankliniella occidentalis (Pergande), was determined as the “Observed” action, and compared to those obtained by using about 0.04 weight % of compound II, and using about 0.02 weight % of lambda-cyhalothrin alone. The “Colby's Expected Action” was calculated using Colby's equation as discussed previously.
The active compounds were formulated in a 10% acetone solution with 0.025% non-ionic surfactant, TWEEN® 20. Cotton leaf punches were used for bioassays. Two cotton leaf punches were placed in each solution and left there for 10 minutes. Leaves were taken out of the solution, placed on a piece of filter paper in separated Petri dishes, and air dried. Each leaf disc was considered a repetition. […]

[6] = test system: brown stink bug, Euschistus heros; assay: Diet treatment bioassay, second-instar nymphs; conditions: Compound II alone, 0.04 weight %
[7] = test system: green stink bugs, Nezara viridula; assay: Field test, backpack sprayer, natural stink bug infestation; conditions: Compound I alone, 0.0306 weight %
Protocol: (§1) Dyne-Amic at 0.625% V/V was used as an adjuvant in the tank mix, and the application was done using a backpack sprayer. Trial was conducted under a natural stink bug infestation. Numbers of adults and nymphs were counted four days after application in 1.82 meters of row per plot using a shake sheet (0.91 meters by 2 rows).
(§2) The “Colby's Expected Action” was calculated using Colby's equation as discussed previously.

[8] = test system: brown stink bug, Euschistus servus (Say); assay: as above; conditions: Compound I alone
Protocol: as §1, §2, §2, §2

[9] = test system: brown stink bug, Euschistus heros; assay: Bean piece dip bioassay, third-instar nymphs; conditions: Compound I alone, 0.04 weight %
Protocol: The active compounds were formulated in a 10% acetone solution with 0.025% non-ionic surfactant, TWEEN® 20. Bioassays were performed for each different active solution. Bean pieces (about one inch-long) were used for the tests. Four bean pieces were placed in each tested active solution and left there for 10 minutes. Bean pieces were taken out of the active solution, and each piece was placed in a well in a 32-well tray and allowed to air dry. Three third-instar nymphs of brown stink bug, Euschistus heros, were infested into each well. The percent control of the pesticidal composition against brown stink bug, Euschistus heros, was determined as the “Observed” action, and compared to those obtained by using about 0.04 weight % of compound I, and using about 0.0025 weight % of lambda-cyhalothrin alone. The “Colby's Expected Action” was calculated using Colby's equation as discussed previously.

[10] = Compound I alone (1:0), average of 0.0167, 0.0333 and 0.0667 weight %

Cc1c(COC(=O)[C@@H]2[C@H](/C=C(\Cl)C(F)(F)F)C2(C)C)cccc1-c1ccccc1 (racemic) [Bifenthrin, bifenthrin, reference compound]
Average % Control ([1]; Bifenthrin alone (0:1), average of 0.0167 and 0.0333 weight %): 41.6%

CC1(C)C(C=C(Cl)Cl)C1C(=O)OC(C#N)c1cccc(Oc2ccccc2)c1 (stereo not drawn) [alpha-Cypermethrin, alpha-cypermethrin, reference compound]
Average % Control ([2]; alpha-Cypermethrin alone (0:1), average of 0.0167 and 0.0333 weight %): 21.1%

CCN(C(=O)CC[S+]([O-])CCC(F)(F)F)c1cn(-c2cccnc2)nc1Cl (stereo not drawn) [Compound II, N-(3-chloro-1-(pyridin-3-yl)-1H-pyrazol-4-yl)-N-ethyl-3-((3,3,3-trifluoropropyl)sulfinyl)propanamide]
% Control Five Days After Treatment [3]: 25%
% Control Three Days After Treatment ([4]; 0.10 weight %): 12.5%
% Control Three Days After Treatment ([4]; 0.13 weight %): 18.8%
% Control Three Days After Treatment ([4]; 0.20 weight %): 6.3%
% Control Three Days After Treatment [5]: 20%
% Control After Six Days of Treatment [6]: 0%

CCN(C(=O)CCSCCC(F)(F)F)c1cn(-c2cccnc2)nc1Cl [Compound I, N-(3-chloro-1-(pyridin-3-yl)-1H-pyrazol-4-yl)-N-ethyl-3-((3,3,3-trifluoropropyl)thio)propanamide]
% Control Four Days After Treatment ([7]; Example 11A): 7.39%
% Control Four Days After Treatment ([7]; Example 11B): 11.94%
Average % Control [1, 10]: 9.34%
Average % Control [2, 10]: 6.93%
% Control Four Days After Treatment ([8]; 0.0306 weight %): 15.15%
% Control Four Days After Treatment ([8]; 0.0459 weight %): 15.15%
% Control Four Days After Treatment [9]: 17%
